# Assay results reported in ChEMBL document CHEMBL4270491, “Novel 2,4- thiazolidinediones: Synthesis, in vitro cytotoxic activity, and mechanistic investigation” (Eur J Med Chem, 2017).
# The source made the active and inactive calls. The rule behind the calls is not given here.
# Tested on: PC-3
# Assay: Cytotoxic activity in human PC3 cells assessed as reduction in cell viability incubated for 3 days by MTT assay
# Type: functional, cell-based
# Conditions: PC-3, 72 h
row,Compound,IC50 [µM]
1,Cc1ccc(-n2c(COc3ccc(/C=C4/SC(=O)NC4=O)cc3)nc3ccccc3c2=O)cc1,82.5
2,COc1cc(/C=C2/SC(=O)NC2=O)ccc1OCc1nc2ccccc2c(=O)n1-c1ccc(C(F)(F)F)cc1,50.1
3,O=C1NC(=O)/C(=C\c2ccc(OCc3nc4ccccc4c(=O)n3-c3ccccc3)cc2)S1,71
4,CN(C)c1ccc(/C=C2/SC(=O)N(Cc3nc4ccccc4c(=O)n3-c3ccccc3)C2=O)cc1,19.4
5,O=C1S/C(=C/c2ccccc2)C(=O)N1Cc1nc2ccccc2c(=O)n1-c1cccc(Br)c1,37
6,COc1ccc(/C=C2/SC(=O)N(Cc3nc4ccccc4c(=O)n3-c3ccccc3)C2=O)cc1,79.6
7,COc1cccc(-n2c(COc3ccc(/C=C4/SC(=O)NC4=O)cc3)nc3ccccc3c2=O)c1,66.9
8,Cc1ccc(/C=C2/SC(=O)N(Cc3nc4ccccc4c(=O)n3-c3ccccc3)C2=O)cc1,82.4
9,COc1ccc(-n2c(CN3C(=O)S/C(=C/c4ccc(N(C)C)cc4)C3=O)nc3ccccc3c2=O)cc1OC,> 100
10,O=C1NC(=O)/C(=C\c2ccc(OCc3nc4ccccc4c(=O)n3-c3ccc(Br)cc3)cc2)S1,60.7
11,COc1cc(/C=C2/SC(=O)NC2=O)ccc1OCc1nc2ccccc2c(=O)n1-c1ccccc1,64.2
12,O=C1NC(=O)/C(=C\c2ccc(OCc3nc4ccccc4c(=O)n3-c3ccc(C(F)(F)F)cc3)cc2)S1,19.1

# Tested on: HT-1080
# Assay: Induction of apoptosis in human HT1080 cells assessed as induction of caspase-3 cleavage at 50 uM incubated for 24 hrs by Western blot analysis
# Type: functional, cell-based
# Conditions: not given
row,Compound,Activity
1,COc1cc(/C=C2/SC(=O)NC2=O)ccc1OCc1nc2ccccc2c(=O)n1-c1ccc(C(F)(F)F)cc1,Active
2,CN(C)c1ccc(/C=C2/SC(=O)N(Cc3nc4ccccc4c(=O)n3-c3ccccc3)C2=O)cc1,Active
3,COc1ccc(-n2c(CN3C(=O)S/C(=C/c4ccc(N(C)C)cc4)C3=O)nc3ccccc3c2=O)cc1OC,Active
4,O=C1NC(=O)/C(=C\c2ccc(OCc3nc4ccccc4c(=O)n3-c3ccc(C(F)(F)F)cc3)cc2)S1,Active

# Tested on: HT-1080
# Assay: Induction of cell cycle arrest in human HT1080 cells assessed as accumulation at G0/G1 phase at 20 uM incubated for 48 hrs by propidium iodide staining based flow cytometry
# Type: functional
# Conditions: not given
row,Compound,Activity
1,CN(C)c1ccc(/C=C2/SC(=O)N(Cc3nc4ccccc4c(=O)n3-c3ccccc3)C2=O)cc1,Active
2,O=C1NC(=O)/C(=C\c2ccc(OCc3nc4ccccc4c(=O)n3-c3ccc(C(F)(F)F)cc3)cc2)S1,Active

# Tested on: HT-1080
# Assay: Induction of cell cycle arrest in human HT1080 cells assessed as accumulation at G2/M phase at 50 uM incubated for 48 hrs by propidium iodide staining based flow cytometry
# Type: functional
# Conditions: not given
row,Compound,Activity
1,Cc1ccc(-n2c(COc3ccc(/C=C4/SC(=O)NC4=O)cc3)nc3ccccc3c2=O)cc1,Active
2,COc1cc(/C=C2/SC(=O)NC2=O)ccc1OCc1nc2ccccc2c(=O)n1-c1ccc(C(F)(F)F)cc1,Active
3,O=C1NC(=O)/C(=C\c2ccc(OCc3nc4ccccc4c(=O)n3-c3ccccc3)cc2)S1,Active
4,COc1ccc(/C=C2/SC(=O)N(Cc3nc4ccccc4c(=O)n3-c3ccccc3)C2=O)cc1,Active
5,COc1cccc(-n2c(COc3ccc(/C=C4/SC(=O)NC4=O)cc3)nc3ccccc3c2=O)c1,Active
6,COc1ccc(-n2c(CN3C(=O)S/C(=C/c4ccc(N(C)C)cc4)C3=O)nc3ccccc3c2=O)cc1OC,Active
7,O=C1NC(=O)/C(=C\c2ccc(OCc3nc4ccccc4c(=O)n3-c3ccc(Br)cc3)cc2)S1,Active
8,COc1cc(/C=C2/SC(=O)NC2=O)ccc1OCc1nc2ccccc2c(=O)n1-c1ccccc1,Active

# Tested on: HT-1080
# Assay: Induction of cell cycle arrest in human HT1080 cells assessed as accumulation at G2/M phase at 20 uM incubated for 48 hrs by propidium iodide staining based flow cytometry
# Type: functional
# Conditions: not given
row,Compound,Activity
1,CN(C)c1ccc(/C=C2/SC(=O)N(Cc3nc4ccccc4c(=O)n3-c3ccccc3)C2=O)cc1,Active
2,O=C1NC(=O)/C(=C\c2ccc(OCc3nc4ccccc4c(=O)n3-c3ccc(C(F)(F)F)cc3)cc2)S1,Active

# Tested on: MDA-MB-231
# Assay: Increase in p21(WAF1) protein expression in human MDA-MB-231 cells at 50 uM incubated for 24 hrs by Western blot analysis
# Type: functional, cell-based
# Conditions: not given
row,Compound,Activity
1,O=C1NC(=O)/C(=C\c2ccc(OCc3nc4ccccc4c(=O)n3-c3ccc(C(F)(F)F)cc3)cc2)S1,Active

# Tested on: HT-1080
# Assay: Induction of apoptosis in human HT1080 cells assessed as induction of DNA fragmentation at 50 uM incubated for 48 hrs by flow cytometry
# Type: functional, cell-based
# Conditions: not given
row,Compound,Activity
1,Cc1ccc(-n2c(COc3ccc(/C=C4/SC(=O)NC4=O)cc3)nc3ccccc3c2=O)cc1,Active
2,COc1cc(/C=C2/SC(=O)NC2=O)ccc1OCc1nc2ccccc2c(=O)n1-c1ccc(C(F)(F)F)cc1,Active
3,O=C1NC(=O)/C(=C\c2ccc(OCc3nc4ccccc4c(=O)n3-c3ccccc3)cc2)S1,Active
4,CN(C)c1ccc(/C=C2/SC(=O)N(Cc3nc4ccccc4c(=O)n3-c3ccccc3)C2=O)cc1,Active
5,COc1ccc(/C=C2/SC(=O)N(Cc3nc4ccccc4c(=O)n3-c3ccccc3)C2=O)cc1,Active
6,COc1cccc(-n2c(COc3ccc(/C=C4/SC(=O)NC4=O)cc3)nc3ccccc3c2=O)c1,Active
7,COc1ccc(-n2c(CN3C(=O)S/C(=C/c4ccc(N(C)C)cc4)C3=O)nc3ccccc3c2=O)cc1OC,Active
8,O=C1NC(=O)/C(=C\c2ccc(OCc3nc4ccccc4c(=O)n3-c3ccc(Br)cc3)cc2)S1,Active
9,COc1cc(/C=C2/SC(=O)NC2=O)ccc1OCc1nc2ccccc2c(=O)n1-c1ccccc1,Active
10,O=C1NC(=O)/C(=C\c2ccc(OCc3nc4ccccc4c(=O)n3-c3ccc(C(F)(F)F)cc3)cc2)S1,Active

# Tested on: PC-3
# Assay: Increase in p21(WAF1) protein expression in human PC3 cells at 50 uM incubated for 24 hrs by Western blot analysis
# Type: functional, cell-based
# Conditions: not given
row,Compound,Activity
1,O=C1NC(=O)/C(=C\c2ccc(OCc3nc4ccccc4c(=O)n3-c3ccc(C(F)(F)F)cc3)cc2)S1,Active

# Tested on: MDA-MB-231
# Assay: Cytotoxic activity in human MDA-MB-231 cells assessed as reduction in cell viability incubated for 3 days by MTT assay
# Type: functional, cell-based
# Conditions: MDA-MB-231, 72 h
row,Compound,IC50 [µM]
1,Cc1ccc(-n2c(COc3ccc(/C=C4/SC(=O)NC4=O)cc3)nc3ccccc3c2=O)cc1,72.2
2,COc1cc(/C=C2/SC(=O)NC2=O)ccc1OCc1nc2ccccc2c(=O)n1-c1ccc(C(F)(F)F)cc1,41
3,O=C1NC(=O)/C(=C\c2ccc(OCc3nc4ccccc4c(=O)n3-c3ccccc3)cc2)S1,50.7
4,CN(C)c1ccc(/C=C2/SC(=O)N(Cc3nc4ccccc4c(=O)n3-c3ccccc3)C2=O)cc1,5.9
5,O=C1S/C(=C/c2ccccc2)C(=O)N1Cc1nc2ccccc2c(=O)n1-c1cccc(Br)c1,23.4
6,COc1ccc(/C=C2/SC(=O)N(Cc3nc4ccccc4c(=O)n3-c3ccccc3)C2=O)cc1,32.5
7,COc1cccc(-n2c(COc3ccc(/C=C4/SC(=O)NC4=O)cc3)nc3ccccc3c2=O)c1,59.6
8,Cc1ccc(/C=C2/SC(=O)N(Cc3nc4ccccc4c(=O)n3-c3ccccc3)C2=O)cc1,39.7
9,COc1ccc(-n2c(CN3C(=O)S/C(=C/c4ccc(N(C)C)cc4)C3=O)nc3ccccc3c2=O)cc1OC,> 100
10,O=C1NC(=O)/C(=C\c2ccc(OCc3nc4ccccc4c(=O)n3-c3ccc(Br)cc3)cc2)S1,45.4
11,COc1cc(/C=C2/SC(=O)NC2=O)ccc1OCc1nc2ccccc2c(=O)n1-c1ccccc1,84.2
12,O=C1NC(=O)/C(=C\c2ccc(OCc3nc4ccccc4c(=O)n3-c3ccc(C(F)(F)F)cc3)cc2)S1,13

# Molecular target: T1, Mitogen-activated protein kinase; ERK1/ERK2 (Homo sapiens) (UniProt P27361+P28482)
# Assay: Induction of ERK1/2 Thr202/Tyr204 phosphorylation in human PC3 cells at 50 uM incubated for 24 hrs by Western blot analysis
# Type: cell-based
# Conditions: not given
# T1 sequence (P27361 whole entry, looked up): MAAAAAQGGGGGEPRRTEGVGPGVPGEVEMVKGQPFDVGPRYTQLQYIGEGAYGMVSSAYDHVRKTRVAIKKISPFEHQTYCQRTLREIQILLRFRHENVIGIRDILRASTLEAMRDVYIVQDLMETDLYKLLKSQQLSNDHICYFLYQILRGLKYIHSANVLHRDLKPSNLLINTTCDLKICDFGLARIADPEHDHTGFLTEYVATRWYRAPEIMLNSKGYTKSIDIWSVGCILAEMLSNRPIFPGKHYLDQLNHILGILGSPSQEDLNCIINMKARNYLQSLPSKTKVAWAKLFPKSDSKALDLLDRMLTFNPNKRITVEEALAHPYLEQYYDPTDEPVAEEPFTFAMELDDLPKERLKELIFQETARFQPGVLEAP
# T1 sequence (P28482 whole entry, looked up): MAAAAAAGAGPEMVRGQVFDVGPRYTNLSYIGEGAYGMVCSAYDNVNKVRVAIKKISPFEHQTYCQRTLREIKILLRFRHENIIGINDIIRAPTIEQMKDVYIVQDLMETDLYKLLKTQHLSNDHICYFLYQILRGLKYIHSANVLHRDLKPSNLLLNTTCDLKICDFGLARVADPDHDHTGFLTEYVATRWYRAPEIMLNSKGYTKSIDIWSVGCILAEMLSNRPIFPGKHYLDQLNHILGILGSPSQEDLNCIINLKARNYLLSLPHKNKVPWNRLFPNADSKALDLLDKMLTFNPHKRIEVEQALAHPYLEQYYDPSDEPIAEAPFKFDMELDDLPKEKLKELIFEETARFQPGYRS
row,Compound,Activity
1,CN(C)c1ccc(/C=C2/SC(=O)N(Cc3nc4ccccc4c(=O)n3-c3ccccc3)C2=O)cc1,Active
2,O=C1NC(=O)/C(=C\c2ccc(OCc3nc4ccccc4c(=O)n3-c3ccc(C(F)(F)F)cc3)cc2)S1,Active

# Molecular target: T1, Mitogen-activated protein kinase; ERK1/ERK2 (Homo sapiens)
# Assay: Inhibition of ERK1/2 Thr202/Tyr204 phosphorylation in human MDA-MB-231 cells at 50 uM incubated for 24 hrs by Western blot analysis
# Type: cell-based
# Conditions: not given
row,Compound,inhibition
1,CN(C)c1ccc(/C=C2/SC(=O)N(Cc3nc4ccccc4c(=O)n3-c3ccccc3)C2=O)cc1,Active
2,O=C1NC(=O)/C(=C\c2ccc(OCc3nc4ccccc4c(=O)n3-c3ccc(C(F)(F)F)cc3)cc2)S1,Active

# Tested on: HT-1080
# Assay: Increase in p21(WAF1) protein expression in human HT1080 cells at 50 uM incubated for 24 hrs by Western blot analysis
# Type: functional, cell-based
# Conditions: not given
row,Compound,Activity
1,O=C1NC(=O)/C(=C\c2ccc(OCc3nc4ccccc4c(=O)n3-c3ccc(C(F)(F)F)cc3)cc2)S1,inactive

# Tested on: HT-1080
# Assay: Cytotoxic activity in human HT1080 cells assessed as reduction in cell viability incubated for 3 days by MTT assay
# Type: functional, cell-based
# Conditions: HT-1080, 72 h
row,Compound,IC50 [µM]
1,Cc1ccc(-n2c(COc3ccc(/C=C4/SC(=O)NC4=O)cc3)nc3ccccc3c2=O)cc1,45.3
2,COc1cc(/C=C2/SC(=O)NC2=O)ccc1OCc1nc2ccccc2c(=O)n1-c1ccc(C(F)(F)F)cc1,38.8
3,O=C1NC(=O)/C(=C\c2ccc(OCc3nc4ccccc4c(=O)n3-c3ccccc3)cc2)S1,34.9
4,CN(C)c1ccc(/C=C2/SC(=O)N(Cc3nc4ccccc4c(=O)n3-c3ccccc3)C2=O)cc1,9
5,O=C1S/C(=C/c2ccccc2)C(=O)N1Cc1nc2ccccc2c(=O)n1-c1cccc(Br)c1,24.6
6,COc1ccc(/C=C2/SC(=O)N(Cc3nc4ccccc4c(=O)n3-c3ccccc3)C2=O)cc1,47.8
7,COc1cccc(-n2c(COc3ccc(/C=C4/SC(=O)NC4=O)cc3)nc3ccccc3c2=O)c1,45.6
8,Cc1ccc(/C=C2/SC(=O)N(Cc3nc4ccccc4c(=O)n3-c3ccccc3)C2=O)cc1,68.4
9,COc1ccc(-n2c(CN3C(=O)S/C(=C/c4ccc(N(C)C)cc4)C3=O)nc3ccccc3c2=O)cc1OC,86.5
10,O=C1NC(=O)/C(=C\c2ccc(OCc3nc4ccccc4c(=O)n3-c3ccc(Br)cc3)cc2)S1,46.1
11,COc1cc(/C=C2/SC(=O)NC2=O)ccc1OCc1nc2ccccc2c(=O)n1-c1ccccc1,64.7
12,O=C1NC(=O)/C(=C\c2ccc(OCc3nc4ccccc4c(=O)n3-c3ccc(C(F)(F)F)cc3)cc2)S1,9

# Tested on: HT-1080
# Assay: Induction of cell cycle arrest in human HT1080 cells assessed as accumulation at G0/G1 phase at 50 uM incubated for 48 hrs by propidium iodide staining based flow cytometry
# Type: functional
# Conditions: not given
row,Compound,Activity
1,Cc1ccc(-n2c(COc3ccc(/C=C4/SC(=O)NC4=O)cc3)nc3ccccc3c2=O)cc1,Active
2,COc1cc(/C=C2/SC(=O)NC2=O)ccc1OCc1nc2ccccc2c(=O)n1-c1ccc(C(F)(F)F)cc1,Active
3,O=C1NC(=O)/C(=C\c2ccc(OCc3nc4ccccc4c(=O)n3-c3ccccc3)cc2)S1,Active
4,COc1ccc(/C=C2/SC(=O)N(Cc3nc4ccccc4c(=O)n3-c3ccccc3)C2=O)cc1,Active
5,COc1cccc(-n2c(COc3ccc(/C=C4/SC(=O)NC4=O)cc3)nc3ccccc3c2=O)c1,Active
6,COc1ccc(-n2c(CN3C(=O)S/C(=C/c4ccc(N(C)C)cc4)C3=O)nc3ccccc3c2=O)cc1OC,Active
7,O=C1NC(=O)/C(=C\c2ccc(OCc3nc4ccccc4c(=O)n3-c3ccc(Br)cc3)cc2)S1,Active
8,COc1cc(/C=C2/SC(=O)NC2=O)ccc1OCc1nc2ccccc2c(=O)n1-c1ccccc1,Active
